Assay results from patent US7507411B2, “Attenuated influenza NS1 variants” (University of Saskatchewan, priority 2006, dated 2009).

Tests used:
[1] = system: SH3, SH2C and SH2N domains of the p85 subunit of PI3K; assay type: binding
[2] = system: PI3K/Akt; assay type: cell-based, human
[3] = system: p85 subunit of PI3K; assay type: binding, human

NS1: Wild-type nonstructural protein 1 of influenza A H1N1 Puerto Rico/8/34 (SEQ ID NO:2)
interaction of NS1 alone with SH2C domain of p85 [1]: interacted | interaction of NS1 alone with SH3 domain of p85 [1]: interacted | interaction of NS1 with SH2C domain of p85 [1]: precipitated NS1 | interaction of NS1 with SH3 domain of p85 [1]: precipitated NS1 | Akt phosphorylation in NS1 expressing cells compared with vector [2]: greater degree of Akt phosphorylation | precipitation of NS1 by p85 antibody [3]: did precipitate NS1 protein
